Values of other authors as cited in patent US20060160700A1, “Nadh-dependent cytochrome b5 reductase as target for herbicides” (Basf Aktiengesellschaft, priority 2002, published 2006).

Columns and labels:
[1] = biological target: T1, NADH-dependent cytochrome b5 reductase from rat liver microsomes (Rattus norvegicus, UniProt P20070); conditions: at a concentration of 0.5 mM, Golf et al. 1985
T1 construct: host or cells: rat liver microsomes
T1 sequence (P20070 1-301): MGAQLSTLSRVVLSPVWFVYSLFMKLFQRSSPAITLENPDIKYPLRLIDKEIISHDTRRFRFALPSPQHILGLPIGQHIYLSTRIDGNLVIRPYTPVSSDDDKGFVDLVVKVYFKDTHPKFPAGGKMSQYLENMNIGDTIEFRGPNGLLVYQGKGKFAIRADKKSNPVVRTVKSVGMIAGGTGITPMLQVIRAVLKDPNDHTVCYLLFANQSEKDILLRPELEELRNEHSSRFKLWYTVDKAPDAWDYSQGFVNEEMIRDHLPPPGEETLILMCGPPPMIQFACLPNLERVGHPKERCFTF

[2] = system: NADH-dependent cytochrome b5 reductase from various organisms; conditions: enzyme from various organisms; Golf et al. 1985, Tamura et al. 1983
[3] = biological target: T2, NADH-dependent cytochrome b5 reductase from human erthyrocytes (Homo sapiens, UniProt P00387); conditions: enzyme from human erythrocytes; Palmieri et al. 1990
T2 construct: host or cells: human erythrocytes
T2 sequence (P00387 24-301 limits assumed): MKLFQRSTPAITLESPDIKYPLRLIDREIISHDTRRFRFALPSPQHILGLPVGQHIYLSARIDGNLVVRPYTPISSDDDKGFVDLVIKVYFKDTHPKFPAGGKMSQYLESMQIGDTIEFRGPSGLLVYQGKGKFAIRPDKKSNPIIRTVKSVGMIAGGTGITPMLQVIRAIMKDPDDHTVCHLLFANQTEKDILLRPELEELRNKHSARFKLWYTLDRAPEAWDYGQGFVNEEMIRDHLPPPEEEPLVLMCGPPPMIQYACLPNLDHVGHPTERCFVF

| Compound | inhibition of NADH-dependent cytochrome b5 reductase (result in words) [2] | further results |
| --- | --- | --- |
| O=C(CC(=O)C(F)(F)F)c1cccs1 [thenoyltrifluoroacetone] | – | inhibition of NADH-dependent cytochrome b5 reductase [1]: 50% |
| CCN1C(=O)C=CC1=O [N-ethylmaleimide] | capable of inhibiting | – |
| O=c1oc2ccccc2c(O)c1Cc1c(O)c2ccccc2oc1=O [dicoumarol] | capable of inhibiting | – |
| O=P(O)(O)O[C@H]1[C@H](OP(=O)(O)O)[C@@H](OP(=O)(O)O)[C@H](OP(=O)(O)O)[C@@H](OP(=O)(O)O)[C@H]1OP(=O)(O)O [inositol hexaphosphate] | – | concentrations that inhibit the NADH-dependent cytochrome b5 reductase [3]: millimolar range |
| CCC1(CCC(C)C)C(=O)NC(=O)NC1=O [amytal] | capable of inhibiting | – |
| CCN(CC)CCCC(C)Nc1c2ccc(Cl)cc2nc2ccc(OC)cc12 (stereo not drawn) [mepacrin] | capable of inhibiting | – |
